This is an account of results in patent US20260028326A1, “COMPOUND BASED ON ISOINDOLINE-SUBSTITUTED GLUTARIMIDE BACKBONE AND USE THEREOF” (GLUETACS THERAPEUTICS (SHANGHAI) CO., LTD., priority 2022, published 2026).

Sequence of human Cereblon WT GST-tagged protein (Q96SW2 whole entry): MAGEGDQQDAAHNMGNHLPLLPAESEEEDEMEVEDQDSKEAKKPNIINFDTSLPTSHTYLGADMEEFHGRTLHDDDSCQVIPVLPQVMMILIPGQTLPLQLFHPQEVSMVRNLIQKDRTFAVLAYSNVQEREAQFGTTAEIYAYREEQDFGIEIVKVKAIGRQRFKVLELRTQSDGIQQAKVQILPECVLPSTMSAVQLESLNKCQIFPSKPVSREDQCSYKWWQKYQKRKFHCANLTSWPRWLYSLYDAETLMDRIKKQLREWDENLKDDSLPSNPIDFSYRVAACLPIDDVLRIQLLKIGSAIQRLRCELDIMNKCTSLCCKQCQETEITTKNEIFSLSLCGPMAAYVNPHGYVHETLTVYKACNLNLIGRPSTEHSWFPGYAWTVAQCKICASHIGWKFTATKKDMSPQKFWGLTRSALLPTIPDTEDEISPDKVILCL

The test addresses human Cereblon WT GST-tagged protein (Homo sapiens (Human), UniProt Q96SW2). In words: CRBN-binding affinity, HTRF (CEREBLON BINDING kit). The method in brief:
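GST-tagged human WT Cereblon incubated with compound, then Thalidomide-Re tracer and anti-GST Eu antibody added. Displacement read by HTRF, reported as CRBN binding inhibition rate against blank control wells without protein.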
(TR-FRET usually uses a lanthanide donor and a delayed reading to cut background.)
For `CC1(C)CCC(CN2CC3CN(Cc4ccc5c(c4)CN(C4CCC(=O)NC4=O)C5=O)CC3C2)=C(c2ccc(Cl)cc2)C1` (centres unmarked) [GT-05653, 3-(5-((5-((4′-chloro-5,5-dimethyl-3,4,5,6-tetrahydro-[1,1′-biphenyl]-2-yl)methyl)hexahydropyrrolo[3,4-c]pyrrol-2(1H)-yl)methyl)-1-oxoisoindolin-2-yl)piperidine-2,6-dione], the IC50 – broadly, the midpoint of a concentration-inhibition curve – was found to be 1.06 µM.

The compound `CC1(C)CCC(C(=O)N2CC3CN(C(=O)c4ccc5c(c4)CN(C4CCC(=O)NC4=O)C5=O)CC3C2)=C(c2ccc(Cl)cc2)C1` (centres unmarked) [GT-05659, 3-(5-(5-(4′-chloro-5,5-dimethyl-3,4,5,6-tetrahydro-[1,1′-biphenyl]-2-carbonyl)octahydropyrrolo[3,4-c]pyrrole-2-carbonyl)-1-oxoisoindolin-2-yl)piperidine-2,6-dione] showed a half-inhibitory concentration (IC50) of 0.66 µM.

For `CC1(C)CCC(C(=O)N2C3CC2CN(Cc2ccc4c(c2)CN(C2CCC(=O)NC2=O)C4=O)C3)=C(c2ccc(Cl)cc2)C1` (centres unmarked) [GT-05660, 3-(5-((6-(4′-chloro-5,5-dimethyl-3,4,5,6-tetrahydro-[1,1′-biphenyl]-2-carbonyl)-3,6-diazabicyclo[3.1.1]heptan-3-yl)methyl)-1-oxoisoindolin-2-yl)piperidine-2,6-dione], the 50% inhibitory concentration (IC50) stood at 1.04 µM.

The compound `CC1(C)CCC(C(=O)N2C3CC2CN(C(=O)c2ccc4c(c2)CN(C2CCC(=O)NC2=O)C4=O)C3)=C(c2ccc(Cl)cc2)C1` (centres unmarked) [GT-05661, 3-(5-(6-(4′-chloro-5,5-dimethyl-3,4,5,6-tetrahydro-[1,1′-biphenyl]-2-carbonyl)-3,6-diazabicyclo[3.1.1]heptane-3-carbonyl)-1-oxoisoindolin-2-yl)piperidine-2,6-dione] came in with an IC50 of 0.96 µM.

Take `CC1(C)CCC(C(=O)N2CC3CCC2CN3C(=O)c2ccc3c(c2)CN(C2CCC(=O)NC2=O)C3=O)=C(c2ccc(Cl)cc2)C1` (centres unmarked) [GT-05663, 3-(5-(5-(4′-chloro-5,5-dimethyl-3,4,5,6-tetrahydro-[1,1′-biphenyl]-2-carbonyl)-2,5-diazabicyclo[2.2.2]octane-2-carbonyl)-1-oxoisoindolin-2-yl)piperidine-2,6-dione]: the IC50 turned out to be 1.09 µM.

On to `O=C1CCC(N2Cc3c(ccc(CN4C5CC4CN(C(=O)c4ccccc4-c4ccc(Cl)cc4)C5)c3F)C2=O)C(=O)N1` (centres unmarked) [GT-05666, 3-(5-((3-(4′-chloro-[1,1′-biphenyl]-2-carbonyl)-3,6-diazabicyclo[3.1.1]heptan-6-yl)methyl)-4-fluoro-1-oxoisoindolin-2-yl)piperidine-2,6-dione], for which the IC50 worked out at 0.69 µM.

In turn, `O=C1CCC(N2Cc3cc(CN4C5CC4CN(C(=O)c4ccccc4-c4ccc(Cl)cc4)C5)c(F)cc3C2=O)C(=O)N1` (centres unmarked) [GT-05667, 3-(5-((3-(4′-chloro-[1,1′-biphenyl]-2-carbonyl)-3,6-diazabicyclo[3.1.1]heptan-6-yl)methyl)-6-fluoro-1-oxoisoindolin-2-yl)piperidine-2,6-dione] had a 50% inhibitory concentration (IC50) of 0.75 µM.

Turning to `O=C1CCC(N2Cc3cc(CN4C5CC4CN(C(=O)c4ccccc4-c4ccc(Cl)cc4)C5)cc(F)c3C2=O)C(=O)N1` (centres unmarked) [GT-05668, 3-(5-((3-(4′-chloro-[1,1′-biphenyl]-2-carbonyl)-3,6-diazabicyclo[3.1.1]heptan-6-yl)methyl)-7-fluoro-1-oxoisoindolin-2-yl)piperidine-2,6-dione], the half-maximal inhibitory concentration (IC50) was determined as 0.65 µM.

`O=C1CCC(N2Cc3cc(CN4CC5CC(C4)N5C(=O)c4ccccc4-c4ccc(Cl)cc4)ccc3C2=O)C(=O)N1` (centres unmarked) [GT-05669, 3-(5-((6-(4′-chloro-[1,1′-biphenyl]-2-carbonyl)-3,6-diazabicyclo[3.1.1]heptan-3-yl)methyl)-1-oxoisoindolin-2-yl)piperidine-2,6-dione] showed an IC50 of 0.63 µM.

`CC1(C)CCC(CN2C3CC2CN(C(=O)c2ccc4c(c2)CN(C2CCC(=O)NC2=O)C4=O)C3)=C(c2ccc(F)cc2)C1` (centres unmarked) [GT-05671, 3-(5-(6-((4′-fluoro-5,5-dimethyl-3,4,5,6-tetrahydro-[1,1′-biphenyl]-2-yl)methyl)-3,6-diazabicyclo[3.1.1]heptane-3-carbonyl)-1-oxoisoindolin-2-yl)piperidine-2,6-dione] showed a 50% inhibitory concentration (IC50) of 0.3 µM.

As for `CC1(C)CC(c2ccc(Cl)cc2)=C(CN2CCN(C(=O)c3ccc4c(c3)CN(C3CCC(=O)NC3=O)C4=O)CC2)CO1` (centres unmarked) [GT-05673, 3-(5-(4-((4-(4-chlorophenyl)-6,6-dimethyl-5,6-dihydro-2H-pyran-3-yl)methyl)piperazine-1-carbonyl)-1-oxoisoindolin-2-yl)piperidine-2,6-dione], the IC50 was determined as 1.14 µM.

Compound `CC1(C)CCC(C(=O)N2CC3(C2)CN(C(=O)c2ccc4c(c2)CN(C2CCC(=O)NC2=O)C4=O)C3)=C(c2ccc(Cl)cc2)C1` (centres unmarked) [GT-05682, 3-(5-(6-(4′-chloro-5,5-dimethyl-3,4,5,6-tetrahydro-[1,1′-biphenyl]-2-carbonyl)-2,6-diazaspiro[3.3]heptane-2-carbonyl)-1-oxoisoindolin-2-yl)piperidine-2,6-dione] registered an IC50 of 0.57 µM.

For the compound `O=C1CCC(N2Cc3cc(CN4CCN(C(=O)c5ccccc5-c5ccc(Cl)cc5)CC4)cc(F)c3C2=O)C(=O)N1` (centres unmarked) [GT-05700, 3-(5-((4-(4′-chloro-[1,1′-biphenyl]-2-carbonyl)piperazin-1-yl)methyl)-7-fluoro-1-oxoisoindolin-2-yl)piperidine-2,6-dione], the half-inhibitory concentration (IC50) is 1.22 µM.

As for `O=C1CCC(N2Cc3c(CN4CCN(C(=O)c5ccccc5-c5ccc(Cl)cc5)CC4)cccc3C2=O)C(=O)N1` (centres unmarked) [GT-05701, 3-(4-((4-(4′-chloro-[1,1′-biphenyl]-2-carbonyl)piperazin-1-yl)methyl)-1-oxoisoindolin-2-yl)piperidine-2,6-dione], the IC50 was 1.8 µM.

`O=C1CCC(N2Cc3cc(CN4CC5CC(C4)N5Cc4ccccc4-c4ccc(Cl)cc4)ccc3C2=O)C(=O)N1` (centres unmarked) [GT-05704, 3-(5-((6-((4′-chloro-[1,1′-biphenyl]-2-yl)methyl)-3,6-diazabicyclo[3.1.1]heptan-3-yl)methyl)-1-oxoisoindolin-2-yl)piperidine-2,6-dione] displayed a concentration for half-maximal inhibition (IC50) of 0.68 µM.

For the compound `O=C1CCC(N2Cc3cc(C(=O)N4CC5CC(C4)N5Cc4ccccc4-c4ccc(Cl)cc4)ccc3C2=O)C(=O)N1` (centres unmarked) [GT-05705, 3-(5-(6-((4′-chloro-[1,1′-biphenyl]-2-yl)methyl)-3,6-diazabicyclo[3.1.1]heptane-3-carbonyl)-1-oxoisoindolin-2-yl)piperidine-2,6-dione], the IC50 was 0.88 µM.

For the compound `O=C1CCC(N2Cc3cc(CN4CC5CC4CN5Cc4ccccc4-c4ccc(Cl)cc4)ccc3C2=O)C(=O)N1` (centres unmarked) [GT-05707, 3-(5-((5-((4′-chloro-[1,1′-biphenyl]-2-yl)methyl)-2,5-diazabicyclo[2.2.1]heptan-2-yl)methyl)-1-oxoisoindolin-2-yl)piperidine-2,6-dione], the concentration for half-maximal inhibition (IC50) was determined as 0.71 µM.

`O=C1CCC(N2Cc3cc(CN4CC5(C4)CN(C(=O)c4ccccc4-c4ccc(Cl)cc4)C5)ccc3C2=O)C(=O)N1` (centres unmarked) [GT-05708, 3-(5-((6-(4′-chloro-[1,1′-biphenyl]-2-carbonyl)-2,6-diazaspiro[3.3]heptan-2-yl)methyl)-1-oxoisoindolin-2-yl)piperidine-2,6-dione]: the half-maximal inhibitory concentration (IC50) was found to be 0.55 µM.

As for `O=C1CCC(N2C(=O)c3ccc(CN4CCN(Cc5ccncc5-c5ccc(Cl)cc5)CC4)cc3C2=O)C(=O)N1` (centres unmarked) [GT-05731, 5-((4-((3-(4-chlorophenyl)pyridin-4-yl)methyl)piperazin-1-yl)methyl)-2-(2,6-dioxopiperidin-3-yl)isoindoline-1,3-dione], the IC50 worked out at 1.65 µM.

On to `O=C1CCC(N2Cc3cc(CN4CC5CC4CN5C(=O)c4ccccc4-c4ccc(Cl)cc4)ccc3C2=O)C(=O)N1` (centres unmarked) [GT-05776, 3-(5-((5-(4′-chloro-[1,1′-biphenyl]-2-carbonyl)-2,5-diazabicyclo[2.2.1]heptan-2-yl)methyl)-1-oxoisoindolin-2-yl)piperidine-2,6-dione], for which the concentration for half-maximal inhibition (IC50) came out at 0.42 µM.

Compound `CC1(C)CCC(CN2CC3CCC2CN3Cc2cc(F)c3c(c2)CN(C2CCC(=O)NC2=O)C3=O)=C(c2ccc(Cl)cc2)C1` (centres unmarked) [GT-05781, 3-(5-((5-((4′-chloro-5,5-dimethyl-3,4,5,6-tetrahydro-[1,1′-biphenyl]-2-yl)methyl)-2,5-diazabicyclo[2.2.2]octan-2-yl)methyl)-7-fluoro-1-oxoisoindolin-2-yl)piperidine-2,6-dione] showed a 50% inhibitory concentration (IC50) of 0.71 µM.

Compound `CC1(C)CCC(CN2CCC(Nc3ccc4c(c3)CN(C3CCC(=O)NC3=O)C4=O)CC2)=C(c2ccc(Cl)cc2)C1` (centres unmarked) [GT-05782, 3-(5-((1-((4′-chloro-5,5-dimethyl-3,4,5,6-tetrahydro-[1,1′-biphenyl]-2-yl)methyl)piperidin-4-yl)amino)-1-oxoisoindolin-2-yl)piperidine-2,6-dione] displayed a half-inhibitory concentration (IC50) of 1.76 µM.

Compound `CC1(C)CCC(C(=O)N2CCC(Nc3ccc4c(c3)CN(C3CCC(=O)NC3=O)C4=O)CC2)=C(c2ccc(Cl)cc2)C1` (centres unmarked) [GT-05783, 3-(5-((1-(4′-chloro-5,5-dimethyl-3,4,5,6-tetrahydro-[1,1′-biphenyl]-2-carbonyl)piperidin-4-yl)amino)-1-oxoisoindolin-2-yl)piperidine-2,6-dione] registered an IC50 of 0.94 µM.

In the case of `CC1(C)CCC(CN2CCC(Nc3ccc4c(c3)CN(C3CCC(=O)NC3=O)C4=O)CC2)=C(c2ccc(F)cc2)C1` (centres unmarked) [GT-05785, 3-(5-((1-((4′-fluoro-5,5-dimethyl-3,4,5,6-tetrahydro-[1,1′-biphenyl]-2-yl)methyl)piperidin-4-yl)amino)-1-oxoisoindolin-2-yl)piperidine-2,6-dione], the IC50 is 1.25 µM.

In turn, `CC1(C)CCC(C(=O)N2CCC(Nc3ccc4c(c3)CN(C3CCC(=O)NC3=O)C4=O)CC2)=C(c2ccc(F)cc2)C1` (centres unmarked) [GT-05786, 3-(5-((1-(4′-fluoro-5,5-dimethyl-3,4,5,6-tetrahydro-[1,1′-biphenyl]-2-carbonyl)piperidin-4-yl)amino)-1-oxoisoindolin-2-yl)piperidine-2,6-dione] showed an IC50 of 1.07 µM.

The compound `CC1(C)CCC(CN2CC3CCC2CN3C(=O)c2ccc3c(c2)CN(C2CCC(=O)NC2=O)C3=O)=C(c2ccc(Cl)cc2)C1` (centres unmarked) [GT-05795, 3-(5-(5-((4′-chloro-5,5-dimethyl-3,4,5,6-tetrahydro-[1,1′-biphenyl]-2-yl)methyl)-2,5-diazabicyclo[2.2.2]octane-2-carbonyl)-1-oxoisoindolin-2-yl)piperidine-2,6-dione] returned a half-maximal inhibitory concentration (IC50) of 0.94 µM.
